Results as given in patent publication US12653814B2, “Benzimidazolone-based cinnamamide derivative as TRPV1 antagonist and pharmaceutical composition for treatment or prevention of pain containing same as active ingredient” (JMACKEM CO., LTD, priority 2020, dated 2026).

Assays:
human TRPV1 (hTRPV1) [1] = molecular target: T1, human TRPV1 (hTRPV1) (Homo sapiens, UniProt Q8NER1); assay: Evaluation of human pH inhibitory activity in hTRPV1-HEK recombinant cells; assay type: cell-based; conditions: inhibition of activation at final pH 6.0, test substance 3 μM
T1 construct: host or cells: HEK (PrecisION hTRPV1-HEK recombinant cell line)
Procedure: Evaluation of Human pH Inhibitory Activity
PrecisION™ hTRPV1-HEK recombinant cells (CYL3063) were purchased from Millipore and used. After culturing the above cells under the conditions of 37° C. and 5% CO2, the cells were inoculated in a 96-well plate at the density of 5×10^4 cells/well, followed by culture for 16 hours. Then, the medium was removed and 100 uL of a staining solution was put into each well, followed by culture for 30 minutes under the conditions of 37° C. and 5% CO2. After 30 minutes, all of the existing staining solution was removed and replaced with 100 uL of HBSS. Thereafter, the cells were acclimatized to room temperature for 15 minutes, and the test substances (example compounds and comparative example compounds of the present invention) were added to each well, followed by culture at room temperature for 15 minutes. Then, the final pH was adjusted to 6.0 using MES, and fluorescence was measured (ex485/em535). In the pH assay, the efficacy of the drug was evaluated using BCTC as a TRPV1 antagonist.

human TRPV1 (hTRPV1) [2] = molecular target: T1, human TRPV1 (hTRPV1); assay: Ca2+ influx assay, antagonism against capsaicin in hTRPV1-HEK recombinant cells; assay type: cell-based; conditions: capsaicin 10 nM as activator, Fluo4-NW fluorescence, read-out: hTRPV1 IC50 [cap]

T1 sequence (Q8NER1 whole entry): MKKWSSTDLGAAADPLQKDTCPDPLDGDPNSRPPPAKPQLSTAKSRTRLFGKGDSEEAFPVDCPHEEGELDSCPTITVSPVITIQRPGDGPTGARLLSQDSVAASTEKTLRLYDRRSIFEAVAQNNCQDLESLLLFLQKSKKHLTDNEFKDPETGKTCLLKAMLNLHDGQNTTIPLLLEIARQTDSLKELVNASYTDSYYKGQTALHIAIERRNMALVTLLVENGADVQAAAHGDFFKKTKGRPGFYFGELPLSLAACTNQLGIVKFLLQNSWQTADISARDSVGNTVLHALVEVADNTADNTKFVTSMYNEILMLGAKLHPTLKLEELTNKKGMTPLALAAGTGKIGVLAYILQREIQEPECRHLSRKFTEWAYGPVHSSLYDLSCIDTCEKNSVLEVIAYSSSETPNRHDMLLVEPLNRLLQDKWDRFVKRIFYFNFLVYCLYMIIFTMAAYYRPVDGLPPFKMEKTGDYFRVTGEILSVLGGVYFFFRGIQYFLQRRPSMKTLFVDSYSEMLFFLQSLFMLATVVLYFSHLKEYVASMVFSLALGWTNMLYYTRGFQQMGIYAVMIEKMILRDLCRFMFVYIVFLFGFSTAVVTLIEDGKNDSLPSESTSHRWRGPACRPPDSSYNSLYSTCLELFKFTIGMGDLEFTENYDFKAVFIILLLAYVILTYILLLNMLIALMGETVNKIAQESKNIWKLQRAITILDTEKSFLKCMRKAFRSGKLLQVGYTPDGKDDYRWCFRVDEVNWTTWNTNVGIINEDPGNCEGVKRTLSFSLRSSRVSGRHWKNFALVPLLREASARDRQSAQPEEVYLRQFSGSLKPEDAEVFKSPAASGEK

SMILES | hTRPV1 pH (%, 3 μM) (human TRPV1 (hTRPV1) [1]) | IC50 (human TRPV1 (hTRPV1) [2])
CC1CCN(c2nc(C(F)(F)F)ccc2/C=C/C(=O)Nc2cccc3[nH]c(=O)[nH]c23)CC1 [Example 1, (E)-3-(2-(4-methylpiperidin-1-yl)-6-(trifluoromethyl)pyridin-3-yl)-N-(2-oxo-2,3-dihydro-1H-benzo[d]imidazol-4-yl)acrylamide] | 78.62% | 37 nM
CCC1CCN(c2nc(C(F)(F)F)ccc2/C=C/C(=O)Nc2cccc3[nH]c(=O)[nH]c23)CC1 [Example 2, (E)-3-(2-(4-ethylpiperidin-1-yl)-6-(trifluoromethyl)pyridin-3-yl)-N-(2-oxo-2,3-dihydro-1H-benzo[d]imidazol-4-yl)acrylamide] | 86.72% | 28.8 nM
O=C(/C=C/c1ccc(C(F)(F)F)nc1N1CCOCC1)Nc1cccc2[nH]c(=O)[nH]c12 [Example 5, (E)-3-(2-morpholino-6-(trifluoromethyl)pyridin-3-yl)-N-(2-oxo-2,3-dihydro-1H-benzo[d]imidazol-4-yl)acrylamide] | 94.79% | 16.3 nM
CCN(CC)c1nc(C(F)(F)F)ccc1/C=C/C(=O)Nc1cccc2[nH]c(=O)[nH]c12 [Example 6, (E)-3-(2-(diethylamino)-6-(trifluoromethyl)pyridin-3-yl)-N-(2-oxo-2,3-dihydro-1H-benzo[d]imidazol-4-yl)acrylamide] | 76.92% | 10.7 nM
CCCN(CCC)c1nc(C(F)(F)F)ccc1/C=C/C(=O)Nc1cccc2[nH]c(=O)[nH]c12 [Example 7, (E)-3-(2-(dipropylamino)-6-(trifluoromethyl)pyridin-3-yl)-N-(2-oxo-2,3-dihydro-1H-benzo[d]imidazol-4-yl)acrylamide] | 89.87% | 23.3 nM
CCCCOc1nc(C(F)(F)F)ccc1/C=C/C(=O)Nc1cccc2[nH]c(=O)[nH]c12 [Example 8, (E)-3-(2-butoxy-6-(trifluoromethyl)pyridin-3-yl)-N-(2-oxo-2,3-dihydro-1H-benzo[d]imidazol-4-yl)acrylamide] | 81.24% | 27.3 nM
CCCCCCOc1nc(C(F)(F)F)ccc1/C=C/C(=O)Nc1cccc2[nH]c(=O)[nH]c12 [Example 9, (E)-3-(2-(hexyloxy)-6-(trifluoromethyl)pyridin-3-yl)-N-(2-oxo-2,3-dihydro-1H-benzo[d]imidazol-4-yl)acrylamide] | – | > 50 nM
O=C(/C=C/c1ccc(C(F)(F)F)nc1OC1CCC1)Nc1cccc2[nH]c(=O)[nH]c12 [Example 11, (E)-3-(2-cyclobutoxy-6-(trifluoromethyl)pyridin-3-yl)-N-(2-oxo-2,3-dihydro-1H-benzo[d]imidazol-4-yl)acrylamide] | 88.23% | 37.8 nM
O=C(/C=C/c1ccc(C(F)(F)F)nc1OC1CCCC1)Nc1cccc2[nH]c(=O)[nH]c12 [Example 12, (E)-3-(2-(cyclopentyloxy)-6-(trifluoromethyl)pyridin-3-yl)-N-(2-oxo-2,3-dihydro-1H-benzo[d]imidazol-4-yl)acrylamide] | 81.25% | 31.5 nM
O=C(/C=C/c1ccc(C(F)(F)F)nc1OCC(F)(F)F)Nc1cccc2[nH]c(=O)[nH]c12 [Example 14, (E)-N-(2-oxo-2,3-dihydro-1H-benzo[d]imidazol-4-yl)-3-(2-(2,2,2-trifluoroethoxy)-6-(trifluoromethyl)pyridin-3-yl)acrylamide] | 94.03% | 34.5 nM
CC(C)(C)COc1nc(C(F)(F)F)ccc1/C=C/C(=O)Nc1cccc2[nH]c(=O)[nH]c12 [Example 15, (E)-3-(2-(neopentyloxy)-6-(trifluoromethyl)pyridin-3-yl)-N-(2-oxo-2,3-dihydro-1H-benzo[d]imidazol-4-yl)acrylamide] | – | 202 nM
CC1CC1COc1nc(C(F)(F)F)ccc1/C=C/C(=O)Nc1cccc2[nH]c(=O)[nH]c12 (centres unmarked) [Example 16, (E)-3-(2-((2-methylcyclopropyl)methoxy)-6-(trifluoromethyl)pyridin-3-yl)-N-(2-oxo-2,3-dihydro-1H-benzo[d]imidazol-4-yl)acrylamide] | 97.34% | 86 nM
O=C(/C=C/c1ccc(C2CC2)nc1OCC1CC1)Nc1cccc2[nH]c(=O)[nH]c12 [Example 18, (E)-3-(6-cyclopropyl-2-(cyclopropylmethoxy)pyridin-3-yl)-N-(2-oxo-2,3-dihydro-1H-benzo[d]imidazol-4-yl)acrylamide] | – | 117 nM
CC(C)c1ccc(/C=C/C(=O)Nc2cccc3[nH]c(=O)[nH]c23)c(OCC2CC2)n1 [Example 19, (E)-3-(2-(cyclopropylmethoxy)-6-isopropylpyridin-3-yl)-N-(2-oxo-2,3-dihydro-1H-benzo[d]imidazol-4-yl)acrylamide] | – | 410 nM
CC(C)(C)c1ccc(/C=C/C(=O)Nc2cccc3[nH]c(=O)[nH]c23)c(OCC2CC2)n1 [Example 23, (E)-3-(6-(tert-butyl)-2-(cyclopropylmethoxy)pyridin-3-yl)-N-(2-oxo-2,3-dihydro-1H-benzo[d]imidazol-4-yl)acrylamide] | – | 217 nM
O=C(/C=C/c1ccc(C(F)(F)F)nc1SCC1CC1)Nc1cccc2[nH]c(=O)[nH]c12 [Example 28, (E)-3-(2-((cyclopropylmethyl)thio)-6-(trifluoromethyl)pyridin-3-yl)-N-(2-oxo-2,3-dihydro-1H-benzo[d]imidazol-4-yl)acrylamide] | – | > 100 nM
O=C(/C=C/c1ccc(C(F)(F)F)nc1SC1CCCCC1)Nc1cccc2[nH]c(=O)[nH]c12 [Example 29, (E)-3-(2-(cyclohexylthio)-6-(trifluoromethyl)pyridin-3-yl)-N-(2-oxo-2,3-dihydro-1H-benzo[d]imidazol-4-yl)acrylamide] | – | > 100 nM

Now from value to compound:

hTRPV1 pH (%, 3 μM) (human TRPV1 (hTRPV1) [1]) | IC50 (human TRPV1 (hTRPV1) [2]) | SMILES
– | 178 nM | CC(C)(C)CCc1nc(C(F)(F)F)ccc1/C=C/C(=O)Nc1cccc2[nH]c(=O)[nH]c12 [Example 40, (E)-3-(2-(3,3-dimethylbutyl)-6-(trifluoromethyl)pyridin-3-yl)-N-(2-oxo-2,3-dihydro-1H-benzo[d]imidazol-4-yl)acrylamide]
– | 123 nM | O=C(/C=C/c1ccc(C(F)(F)F)nc1C1CCCC1)Nc1cccc2[nH]c(=O)[nH]c12 [Example 41, (E)-3-(2-cyclopentyl-6-(trifluoromethyl)pyridin-3-yl)-N-(2-oxo-2,3-dihydro-1H-benzo[d]imidazol-4-yl)acrylamide]
– | > 160 nM | CC(C)c1cc(/C=C/C(=O)Nc2cccc3[nH]c(=O)[nH]c23)n(-c2cccc(Cl)c2)n1 [Example 51, (E)-3-(1-(3-chlorophenyl)-3-isopropyl-1H-pyrazol-5-yl)-N-(2-oxo-2,3-dihydro-1H-benzo[d]imidazol-4-yl)acrylamide]
– | > 160 nM | CC1(c2cc(/C=C/C(=O)Nc3cccc4[nH]c(=O)[nH]c34)n(-c3cccc(Cl)c3)n2)CC1 [Example 52, (E)-3-(1-(3-chlorophenyl)-3-(1-methylcyclopropyl)-1H-pyrazol-5-yl)-N-(2-oxo-2,3-dihydro-1H-benzo[d]imidazol-4-yl)acrylamide]
– | > 160 nM | CC(C)c1nc(-c2cccc(Cl)c2)c(/C=C/C(=O)Nc2cccc3[nH]c(=O)[nH]c23)s1 [Example 55, (E)-3-(4-(3-chlorophenyl)-2-isopropylthiazol-5-yl)-N-(2-oxo-2,3-dihydro-1H-benzo[d]imidazol-4-yl)acrylamide]
– | 103 nM | CC(C)(C)c1nc(-c2cccc(Cl)c2)c(/C=C/C(=O)Nc2cccc3[nH]c(=O)[nH]c23)s1 [Example 58, (E)-3-(2-(tert-butyl)-4-(3-chlorophenyl)thiazol-5-yl)-N-(2-oxo-2,3-dihydro-1H-benzo[d]imidazol-4-yl)acrylamide]
– | > 160 nM | CC(F)(F)c1cc(C2CC2C(=O)Nc2cccc3[nH]c(=O)[nH]c23)n(-c2cccc(Cl)c2)n1 (centres unmarked) [Example 64, 2-(1-(3-chlorophenyl)-3-(1,1-difluoroethyl)-1H-pyrazol-5-yl)-N-(2-oxo-2,3-dihydro-1H-benzo[d]imidazol-4-yl)cyclopropane-1-carboxamide]
– | > 160 nM | CC(C)c1cc(C2CC2C(=O)Nc2cccc3[nH]c(=O)[nH]c23)n(-c2cccc(Cl)c2)n1 (centres unmarked) [Example 65, 2-(1-(3-chlorophonyl)-3-isopropyl-1H-pyrazol-5-yl)-N-(2-oxo-2,3-dihydro-1H-benzo[d]imidazol-4-yl)cyclopropane-1-carboxamide]
– | > 160 nM | O=C(Nc1cccc2[nH]c(=O)[nH]c12)C1CC1c1cc(C2CC2)nn1-c1cccc(Cl)c1 (centres unmarked) [Example 66, 2-(1-(3-chlorophenyl)-3-cyclopropyl-1H-pyrazol-5-yl)-N-(2-oxo-2,3-dihydro-1H-benzo[d]imidazol-4-yl)cyclopropane-1-carboxamide]
– | > 160 nM | CC1(c2cc(C3CC3C(=O)Nc3cccc4[nH]c(=O)[nH]c34)n(-c3cccc(Cl)c3)n2)CC1 (centres unmarked) [Example 67, 2-(1-(3-chlorophenyl)-3-(1-methylcyclopropyl)-1H-pyrazol-5-yl)-N-(2-oxo-2,3-dihydro-1H-benzo[d]imidazol-4-yl)cyclopropane-1-carboxamide]
– | 139 nM | CC(C)(C)c1cc(C2CC2C(=O)Nc2cccc3[nH]c(=O)[nH]c23)n(-c2cccc(Cl)c2)n1 (centres unmarked) [Example 68, 2-(3-(tert-butyl)-1-(3-chlorophenyl)-1H-pyrazol-5-yl)-N-(2-oxo-2,3-dihydro-1H-benzo[d]imidazol-4-yl)cyclopropane-1-carboxamide]
